Experiments:
[1] = system: phospho-SLP-76 (Ser376) in Jurkat cells; test: Phospho-SLP-76 (Ser376) Homogeneous Time Resolved Fluorescence (HTRF) assay in Jurkat cells; format: cell-based; conditions: Homo sapiens, Phospho-SLP-76 (Ser376) HTRF, anti-CD3 stimulation, read-out: SLP76 Assay_IC50
How it was run: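 Jurkat cells pre-treated 30 min with compounds (10 μM to 0.1 nM, 11-point, 0.1% DMSO), then stimulated with 200 μg/mL F(ab)2-complexed anti-CD3 (UCHT1) for 15 min at 37 °C. Lysate phospho-SLP-76 detected by HTRF after overnight antibody incubation; IC50 from four-parameter fit.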

[2] = biological target: human full-length recombinant HPK1 (Homo sapiens (Human), UniProt Q92918); test: HPK1 biochemical enzyme assay, microfluidic mobility shift assay (MSA); conditions: HPK1 mobility shift assay; read-out: HPK1 Enzyme Assay_Ki
Chain of human full-length recombinant HPK1 (Q92918 whole entry): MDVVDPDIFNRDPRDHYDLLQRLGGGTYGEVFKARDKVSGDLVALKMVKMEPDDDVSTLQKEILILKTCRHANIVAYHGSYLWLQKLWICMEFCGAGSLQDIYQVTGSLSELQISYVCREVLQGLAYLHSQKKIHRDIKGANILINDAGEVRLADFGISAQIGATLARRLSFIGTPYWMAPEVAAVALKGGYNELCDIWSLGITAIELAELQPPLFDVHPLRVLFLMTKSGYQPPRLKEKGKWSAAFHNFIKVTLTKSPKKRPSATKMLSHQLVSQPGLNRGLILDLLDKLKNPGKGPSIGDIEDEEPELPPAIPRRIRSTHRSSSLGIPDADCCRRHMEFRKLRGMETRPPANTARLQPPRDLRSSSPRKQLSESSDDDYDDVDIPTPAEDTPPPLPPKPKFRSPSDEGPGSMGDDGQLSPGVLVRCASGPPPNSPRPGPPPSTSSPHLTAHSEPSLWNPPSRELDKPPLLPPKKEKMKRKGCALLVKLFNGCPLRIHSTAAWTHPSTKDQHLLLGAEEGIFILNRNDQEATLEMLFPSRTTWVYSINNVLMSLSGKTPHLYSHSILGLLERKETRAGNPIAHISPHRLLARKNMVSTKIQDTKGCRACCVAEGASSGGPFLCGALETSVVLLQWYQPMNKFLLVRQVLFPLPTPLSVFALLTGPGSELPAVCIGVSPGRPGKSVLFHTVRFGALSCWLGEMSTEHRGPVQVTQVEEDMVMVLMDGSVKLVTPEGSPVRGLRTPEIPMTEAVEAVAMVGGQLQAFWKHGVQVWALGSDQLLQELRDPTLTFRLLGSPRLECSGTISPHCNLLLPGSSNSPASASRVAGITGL

| IC50 [1] | Ki [2] | SMILES |
| --- | --- | --- |
| 266 nM | 0.46 nM | CC[C@@H](C)n1cnnc1-c1cccc(N2Cc3c(cc(C4(C)CC4)nc3CNC)C2=O)n1 [Example 139, 2-(6-{4-[(2R)-butan-2-yl]-4H-1,2,4-triazol-3-yl}pyridin-2-yl)-4-[(methylamino)methyl]-6-(1-methylcyclopropyl)-2,3-dihydro-1H-pyrrolo[3,4-c]pyridin-1-one] |
| 464 nM | 2.07 nM | CCN(c1cc2c(c(CN)n1)CN(c1cccc(-c3nncs3)n1)C2=O)C(C)C [Example 140, 4-(aminomethyl)-6-[ethyl(propan-2-yl)amino]-2-[6-(1,3,4-thiadiazol-2-yl)pyridin-2-yl]-2,3-dihydro-1H-pyrrolo[3,4-c]pyridin-1-one] |
| 122 nM | 0.74 nM | CCN(c1cc2c(c(CN)n1)CN(c1cccc(-c3nncn3CC)n1)C2=O)C(C)C [Example 141, 4-(aminomethyl)-6-[ethyl(propan-2-yl)amino]-2-[6-(4-ethyl-4H-1,2,4-triazol-3-yl)pyridin-2-yl]-2,3-dihydro-1H-pyrrolo[3,4-c]pyridin-1-one] |
| 239 nM | 0.52 nM | CCC(CC)n1cnnc1-c1cccc(N2Cc3c(cc(C4CC4)nc3CNC)C2=O)n1 [Example 142, 6-cyclopropyl-4-[(methylamino)methyl]-2-{6-[4-(pentan-3-yl)-4H-1,2,4-triazol-3-yl]pyridin-2-yl}-2,3-dihydro-1H-pyrrolo[3,4-c]pyridin-1-one] |
| 28 nM | 0.09 nM | CCC(CC)n1cnnc1-c1cccc(N2Cc3c(cc(N4CCC[C@H]4C)nc3CN)C2=O)n1 [Example 143, 4-(aminomethyl)-6-[(2R)-2-methylpyrrolidin-1-yl]-2-{6-[4-(pentan-3-yl)-4H-1,2,4-triazol-3-yl]pyridin-2-yl}-2,3-dihydro-1H-pyrrolo[3,4-c]pyridin-1-one] |
| 15 nM | < 0.05 nM | CCC(CC)n1cnnc1-c1cccc(N2Cc3c(cc(N4CCC[C@H]4C)nc3CNC)C2=O)n1 [Example 144, 4-[(methylamino)methyl]-6-[(2R)-2-methylpyrrolidin-1-yl]-2-{6-[4-(pentan-3-yl)-4H-1,2,4-triazol-3-yl]pyridin-2-yl}-2,3-dihydro-1H-pyrrolo[3,4-c]pyridin-1-one] |
| 61 nM | 0.47 nM | CCN(c1cc2c(c(CN)n1)CN(c1cccc(-c3nncn3C(C)C)n1)C2=O)C(C)C [Example 145, 4-(aminomethyl)-6-[ethyl(propan-2-yl)amino]-2-{6-[4-(propan-2-yl)-4H-1,2,4-triazol-3-yl]pyridin-2-yl}-2,3-dihydro-1H-pyrrolo[3,4-c]pyridin-1-one] |
| 106 nM | 0.91 nM | CCCn1cnnc1-c1cccc(N2Cc3c(cc(N(CC)C(C)C)nc3CN)C2=O)n1 [Example 146, 4-(aminomethyl)-6-[ethyl(propan-2-yl)amino]-2-[6-(4-propyl-4H-1,2,4-triazol-3-yl)pyridin-2-yl]-2,3-dihydro-1H-pyrrolo[3,4-c]pyridin-1-one] |
| 33 nM | 0.06 nM | CCC(CC)n1cnnc1-c1cccc(N2Cc3c(cc(N(C)C(C)C)nc3CN)C2=O)n1 [Example 150] |
| 14 nM | 0.1 nM | CCC(CC)n1cnnc1-c1cccc(N2Cc3c(cc(N4CCCC4(C)C)nc3CN)C2=O)n1 [Example 151] |
| 46 nM | 0.12 nM | CCC(CC)n1cnnc1-c1cccc(N2Cc3c(cc(N4CCC[C@@H]4C)nc3CN)C2=O)n1 [Example 152] |
| 65 nM | 0.14 nM | CCC(CC)n1cnnc1-c1cccc(N2Cc3c(cc(N(C)CC)nc3CN)C2=O)n1 [Example 153] |
| 151 nM | 0.15 nM | CCn1c(C)nnc1-c1cccc(N2Cc3c(cc(N4CCCC4(C)C)nc3CN)C2=O)n1 [Example 154] |
| 55 nM | 0.16 nM | CCCn1c(C)nnc1-c1cccc(N2Cc3c(cc(N4CCCC4(C)C)nc3CN)C2=O)n1 [Example 155] |
| 104 nM | 0.19 nM | Cc1nnc(-c2cccc(N3Cc4c(cc(N5CCC[C@H]5C)nc4CN)C3=O)n2)n1C(C)C [Example 156] |
